Results: patent publication US20240174690A1, “ANNULATED 2-AMINO-3-CYANO THIOPHENES AND DERIVATIVES FOR THE TREATMENT OF CANCER” (BOEHRINGER INGELHEIM INTERNATIONAL GMBH, priority 2021, published 2024)

Legend:
[1] = tested on: KRAS G12C-dependent Ba/F3 cells; experiment: Ba/F3 proliferation assay, KRAS G12C; assay type: cell-based; details: Mus musculus, BaF3, 72 h, AlamarBlue
Procedure, shortened: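 IL-3-independent Ba/F3 lines driven by transduced KRAS G12C, G12D or G12V, with puromycin withdrawn about ten days before testing. Viability after compound treatment measured by AlamarBlue fluorescence in duplicate, and values derived by curve fitting.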

[2] = tested on: SK-CO-1 cells; experiment: SK-CO-1 CTG proliferation assay (120 h) (CRC, G12V); assay type: cell-based; details: Homo sapiens; SK-CO-1 cells (CRC, G12V), CTG 120 h
Experimental: SK-CO-1 CTG Proliferation Assay (120 h) (CRC, G12V)
SK-CO-1 cells (ATCC HTB-39) are dispensed into 384-well plates, flat and clear bottom (Greiner, PNr. 781091) at a density of 500 cells per well in 60 μL EMEM (Sigma M5650)+10% Fetal Calf Serum (HyClone, PNr.: SH30084.03) and incubated at 37° C. in a CO2 incubator overnight. The next day, compounds (10 mM stock in DMSO) are added with the ECHO acoustic liquid handler system (Beckman Coulter), including DMSO controls. Plates are incubated for 120 h, and cell viability is measured using CellTiter-Glo luminescent cell viability reagent (Promega product code G7570). Viability (stated as percent of control) is defined as relative luminescence units RLU of each well divided by the RLU of cells in DMSO controls. IC50 values are determined from viability measurements by non-linear regression using a four-parameter model.

[3] = Metabolic (microsomal) stability assay, human liver microsomes (HLM); assay type: in vitro ADME; details: predicted clearance as percent of liver blood flow, 1 μM
Procedure, shortened: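 LC-MS/MS tracked parent disappearance at 0, 5, 15, 30 and 60 min in NADPH-initiated incubations with 1 mg/mL human microsomal protein and 1 μM compound at 37°C, pH 7.5. First-order fits gave intrinsic clearance, which was scaled up and reported as % QH. NADPH-free controls were also run.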

[4] = tested on: NCI-H2122 cells; experiment: NCI-H2122 CTG proliferation assay (120 h) (NSCLC, G12C); assay type: cell-based; details: Homo sapiens
Experimental: NCI-H2122 CTG Proliferation Assay (120 h) (NSCLC, G12C)
The CTG assay is designed to measure quantitatively the proliferation of NCI-H2122 cells (ATCC CRL-5985), using the CellTiter Glow Assay Kit (Promega G7571). Cells are grown in RPMI medium (ATCC) supplemented with Fetal Calf Serum (Life Technologies, Gibco BRL, Cat. No. 10270-106). On “day 0” 200 NCI-H2122 cells are seeded in 60 μL RPMI ATCC+10% FCS+Penstrep in a black 384-well plate, flat and clear bottom (Greiner, PNr. 781091). Cells are then incubated in the plates at 37° C. in a CO2 incubator overnight. On day 1, compounds (10 mM stock in DMSO) are added with the ECHO acoustic liquid handler system (Beckman Coulter), including DMSO controls. Plates are incubated for 120 h, and cell viability is measured using CellTiter-Glo luminescent cell viability reagent (Promega product code G7570). Viability (stated as percent of control) is defined as relative luminescence units RLU of each well divided by the RLU of cells in DMSO controls. IC50 values are determined from viability measurements by non-linear regression using a four parameter model.

[5] = molecular target: CYP3A4 (Homo sapiens (Human), UniProt P08684); experiment: Mechanism based inhibition of CYP3A4 assay (MBI 3A4); assay type: in vitro ADME; details: hydroxy-midazolam formation after 30 min vs 0 min preincubation, 25 uM, human liver microsomes
Experimental: After preincubation, the incubate is diluted 1:10 and the substrate midazolam is added for the main incubation (15 min). The main incubation is quenched with acetonitrile and the formation of hydroxy-midazolam is quantified via LC/MS-MS. The formation of hydroxy-midazolam from the 30 min preincubation relative to the formation from the 0 min preincubation is used as a readout. Values of less than 100% mean that the substrate midazolam is metabolized to a lower extent upon 30 min preincubation compared to 0 min preincubation. In general low effects upon 30 min preincubation are desired (corresponding to values close to 100%/not different to the values determined with water control).

Chain of CYP3A4 (P08684 whole entry): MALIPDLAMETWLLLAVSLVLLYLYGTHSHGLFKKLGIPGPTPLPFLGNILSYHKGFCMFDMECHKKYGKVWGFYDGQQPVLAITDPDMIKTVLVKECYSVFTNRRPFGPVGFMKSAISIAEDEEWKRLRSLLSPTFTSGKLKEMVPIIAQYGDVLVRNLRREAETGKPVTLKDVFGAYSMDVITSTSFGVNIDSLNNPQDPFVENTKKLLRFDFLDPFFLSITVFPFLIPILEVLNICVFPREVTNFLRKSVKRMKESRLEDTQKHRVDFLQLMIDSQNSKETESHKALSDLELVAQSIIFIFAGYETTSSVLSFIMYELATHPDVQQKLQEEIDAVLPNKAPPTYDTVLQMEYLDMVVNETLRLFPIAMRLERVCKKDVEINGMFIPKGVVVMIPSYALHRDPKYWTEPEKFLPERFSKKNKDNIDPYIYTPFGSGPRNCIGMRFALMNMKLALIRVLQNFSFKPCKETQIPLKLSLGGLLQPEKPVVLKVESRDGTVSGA

Structure (SMILES) | IC50 [1] [µM] | IC50 [2] [µM] | HLM QH [3] [%] | IC50 [4] [µM] | MBI 3A4 [5] [%]
C[C@H](Oc1cc(-c2cncnc2)nc(-c2noc3c2CCC[C@@]32CCCc3sc(N)c(C#N)c32)n1)[C@@H]1CCCN1C [II-82] | 0.082 | 0.17 | <24 | 2.68 | 73
C[C@H](Oc1cc(N2CCNC3(CC3)C2)nc(-c2noc3c2CCC[C@@]32CCCc3sc(N)c(C#N)c32)n1)[C@@H]1CCCN1C [II-54] | 0.074 | 0.464 | 28 | 1.77 | 31
C[C@H](Oc1cc(N2CC[C@@H](O)C2)nc(-c2noc3c2CCC[C@@]32CCCc3sc(N)c(C#N)c32)n1)[C@@H]1CCCN1C [II-66] | 0.054 | 0.076 | <24 | 5.01 | 71
C[C@H](Oc1cc(N2CCNC[C@]23CCOC3)nc(-c2noc3c2CCC[C@@]32CCCc3sc(N)c(C#N)c32)n1)[C@@H]1CCCN1C [II-50] | 0.27 | 0.802 | 52 | 2.68 | 54
C[C@H](Oc1cc(-c2ccn(-c3ccccc3)n2)nc(-c2noc3c2CCC[C@@]32CCCc3sc(N)c(C#N)c32)n1)[C@@H]1CCCN1C [II-89] | 0.057 | 0.198 | <24 | 1.53 | 73
C[C@H](Oc1cc(N2CCN(C)CC2)nc(-c2noc3c2CCC[C@@]32CCCc3sc(N)c(C#N)c32)n1)[C@@H]1CCCN1C [II-55] | 0.297 | 0.754 | <24 | 4.91 | 88
C[C@H](Oc1cc(-c2ccncc2)nc(-c2noc3c2CCC[C@@]32CCCc3sc(N)c(C#N)c32)n1)[C@@H]1CCCN1C [II-78] | 0.037 | 0.084 | 35 | 2.15 | 48
C[C@H](Oc1cc(-c2cnn(C)c2)nc(-c2noc3c2CCC[C@@]32CCCc3sc(N)c(C#N)c32)n1)[C@@H]1CCCN1C [II-74] | 0.05 | 0.052 | <24 | 2.86 | 81
C[C@H](Oc1cc(N2CCNC3(CC3)C2)nc(-c2onc3c2CCC[C@@]32CCCc3sc(N)c(C#N)c32)n1)[C@@H]1CCCN1C [I-5] | 0.124 | 0.987 | <24 | 2.42 | 34
C[C@H](Oc1cc(N2CCC[C@@H](O)C2)nc(-c2noc3c2CCC[C@@]32CCCc3sc(N)c(C#N)c32)n1)[C@@H]1CCCN1C [II-59] | 0.031 | 0.067 | <24 | 1.35 | 80
C[C@H](Oc1cc(-c2cccc(CO)c2)nc(-c2noc3c2CCC[C@@]32CCCc3sc(N)c(C#N)c32)n1)[C@@H]1CCCN1C [II-97] | 0.058 | 0.212 | <24 | 2.02 | 76

More lines, now with the values ahead:

IC50 [1] [µM] | IC50 [2] [µM] | HLM QH [3] [%] | IC50 [4] [µM] | MBI 3A4 [5] [%] | Structure (SMILES)
0.026 | 0.023 | 38 | 3.13 | 57 | C[C@H](Oc1cc(N2CCN(C)C2=O)nc(-c2noc3c2CCC[C@@]32CCCc3sc(N)c(C#N)c32)n1)[C@@H]1CCCN1C [II-75]
0.015 | 0.078 | 46 | 1.09 | 68 | CO[C@@H]1C[C@@H]([C@H](C)Oc2cc(-c3ccn(C)n3)nc(-c3noc4c3CCC[C@@]43CCCc4sc(N)c(C#N)c43)n2)N(C)C1 [II-91]
0.019 | 0.051 | 47 | 1.12 | 52 | C[C@H](Oc1cc(-c2ccccn2)nc(-c2noc3c2CCC[C@@]32CCCc3sc(N)c(C#N)c32)n1)[C@@H]1CCCN1C [II-85]
0.028 | 0.06 | <24 | 1.3 | 72 | C[C@H](Oc1cc(C2=CCOCC2)nc(-c2noc3c2CCC[C@@]32CCCc3sc(N)c(C#N)c32)n1)[C@@H]1CCCN1C [II-67]
0.031 | 0.491 | 44 | 2.86 | 61 | Cc1cn(-c2cc(O[C@@H](C)[C@@H]3CCCN3C)nc(-c3noc4c3CCC[C@@]43CCCc4sc(N)c(C#N)c43)n2)nn1 [II-106]
0.01 | 0.043 | 53 | 1.61 | 52 | C[C@H](Oc1cc(N2CCCC2=O)nc(-c2noc3c2CCC[C@@]32CCCc3sc(N)c(C#N)c32)n1)[C@@H]1CCCN1C [II-73]
0.018 | 0.115 | <24 | 0.515 | 94 | C[C@H](Oc1cc(-n2ccnc2)nc(-c2noc3c2CCC[C@@]32CCCc3sc(N)c(C#N)c32)n1)[C@@H]1CCCN1C [II-69]
0.01 | 0.051 | <24 | 0.858 | 76 | C[C@H](Oc1cc(-c2cnsc2)nc(-c2noc3c2CCC[C@@]32CCCc3sc(N)c(C#N)c32)n1)[C@@H]1CCCN1C [II-111]
0.006 | 0.047 | 26 | 0.434 | 77 | C[C@H](Oc1cc([C@H]2CCOC2)nc(-c2noc3c2CCC[C@@]32CCCc3sc(N)c(C#N)c32)n1)[C@@H]1CCCN1C [II-88]
0.027 | 0.126 | 47 | 1.09 | 71 | C[C@H](Oc1cc(-n2ccnc2)nc(-c2noc3c2CCC[C@@]32CCCc3sc(N)c(C#N)c32)n1)[C@@H]1C[C@@H](F)CN1C [II-120]
0.008 | 0.067 | <24 | 0.307 | 85 | C[C@H](Oc1cc(-c2ccn(C)n2)nc(-c2noc3c2CCC[C@@]32CCCc3sc(N)c(C#N)c32)n1)[C@@H]1CCCN1C [II-96]
